The record followed here is publication PMC9460506, “Polyphenol-Rich Date Palm Fruit Seed (Phoenix Dactylifera L.) Extract Inhibits Labile Iron, Enzyme, and Cancer Cell Activities, and DNA and Protein Damage” (Nutrients, 2022).

One may read the IC50 as the point on the concentration scale where inhibition reaches its midpoint. A low value points to inhibition by little substance.

The test system of one series is Ferritin. The experiment in a line: Labile iron inhibition test (iron release from ferritin by superoxide). In kind it is biochemical. As to the method: The tested mixture was irradiated with a fluorescent lamp at room temperature for 90 min. Labile iron was measured, as noted previously.
A short description of series [1]: Ferric-reducing/antioxidant power (FRAP) test. Particulars: tested 0.1 to 5 mg/mL. The protocol: The FRAP reagent proportions consisted of 1:1:10 (v/v/v) of TPTZ 10 mM solution in 40 mM HCl, FeCl3 20 mM, and acetate buffer pH 3.6, 0.3 M. Then, 1 mL of the tested sample was mixed with 2 mL of freshly prepared FRAP reagent. The mixtures were incubated for 30 min at 37 °C. The absorbance was conducted using a Varian CARY 50 Scan UV–VIS Spectrophotometer with a Cary 50 Microplate Reader Accessory (Varian, Inc., Walnut Creek, CA, USA), at 593 nm. Deionized water was used as a blank. FeSO4 was used for the calibration curve. The values of FRAP were expressed as µmol of Fe (II).

A short description of series [2]: DPPH free radical-scavenging test. Particulars: tested 0.1 to 5 mg/mL. As to the method: They were determined to be effective against 1,1-diphenyl-2, picrylhydrazyl radicals. The results of the study were compared with those of a previously reported method. […] The absorbance was conducted using a Varian CARY 50 Scan UV–VIS Spectrophotometer with a Cary 50 Microplate Reader Accessory (Varian, Inc., Walnut Creek, CA, USA).
(Loss of DPPH colour is used to gauge radical scavenging.)

Series [3] can be described thus: Nitric oxide radical (NO) scavenging test (Griess reaction). As to the method:
In brief, 3 mL of the reaction mixture (2 mL of 10 mM sodium nitroprusside, 0.5 mL phosphate buffer saline, and 0.5 of tested samples). The mixture was incubated for 150 min at 25 °C. Then 0.5 mL of the mixture was mixed with 1 mL of (sulfanilic acid reagent: 0.33% in 20% glacial acetic acid). After 5 min, 1 mL of naphthyl ethylene diamine dihydrochloride 0.1% was added. After 30 min at room temperature, the absorbance was conducted using a Varian CARY 50 Scan UV–VIS Spectrophotometer with a Cary 50 Microplate Reader Accessory (Varian, Inc., Walnut Creek, CA, USA) at 540 nm. The nitrite percentage was determined by considering Equation 1 described above.
(In general: Griess reagent forms a coloured azo dye with nitrite.)

Series [4] in a line: Total antioxidant activity (TAC, phosphomolybdate). As to conditions: tested 0.1-5 mg/mL. The protocol:
In brief, 0.3 mL of a reagent composed of sodium phosphate 28 mM, sulphuric acid 0.6 M, and ammonium molybdate 4 mM were added to 0.1 mL tested samples and incubated at 95 °C for 90 min. After cooling, the mixture was measured at 695 nm using a Varian CARY 50 Scan UV–VIS Spectrophotometer with a Cary 50 Microplate Reader Accessory (Varian, Inc., Walnut Creek, CA, USA). A higher antioxidant capacity is correlated with a higher absorbance value.

Series [5] concerns Bovine Serum Albumin (BSA).
Experimental: Bovine Serum Albumin (BSA) was oxidized by AAPH using a method outlined earlier [18]. […] The control sample was without AAPH.
Then the mixture was loaded and separated using SDS-PAGE 10% after reduction conditions for 5 min, at 100 °C. The free stained gels’ images were taken with a ChemiDoc MV gel documentation system (Bio-Rad, Hercules, CA, USA). The band intensity determined the protein damage amount for each band using Image Lab 4.1 Software version 6.1.0 (Bio-Rad, Hercules, CA, USA).

In brackets after ≈: the same amount, converted by molar mass.

As for `Cc1c(C)c2c(c(C)c1O)CCC(C)(C(=O)O)O2` (centres unmarked) [Trolox], the “percent inhibition of iron release from ferritin” value (from here on “percent inhibition”) was found to be 39.33 ± 0.54% in the series on Ferritin (at 10 μg), 84.79 ± 3.00% with Ferritin (at 50 μg) and 87.87 ± 1.87% in the series with Ferritin (at 100 μg).
Take `O=C(O)c1cc(O)c(O)c(O)c1` [Gallic acid, gallic acid]: the “percent inhibition” value in the series on Ferritin (at 10 μg) came out at 50.68 ± 0.18%; in the series with Ferritin (at 50 μg), 59.22 ± 0.81%; with Ferritin (at 100 μg) it was 68.55 ± 0.38%. Also, the “IC50, Labile Iron” value in the series on Ferritin (iron release from ferritin by superoxide) stood at 4.86 ± 0.23 µg/mL (≈ 0.0286 mM).
For the compound `C[C@@H]1O[C@@H](OC[C@H]2O[C@@H](Oc3c(-c4ccc(O)c(O)c4)oc4cc(O)cc(O)c4c3=O)[C@H](O)[C@@H](O)[C@@H]2O)[C@H](O)[C@H](O)[C@H]1O` [Rutin], in series [1], the “Free Radical Inhibition Activity IC50, FRAP” value amounted to 533 ± 22.85 µg/mL. In addition, the “percent inhibition” value amounted to 85.32 ± 0.56% in the series on Ferritin (at 10 μg), 90.30 ± 0.01% in the series with Ferritin (at 50 μg) and 96.65 ± 0.01% in the series on Ferritin (at 100 μg).
As to `O=C1O[C@H]([C@@H](O)CO)C(O)=C1O` [VC, vitamin C], the “Free Radical Inhibition Activity IC50, DPPH” value in series [2] stood at 880 ± 12.89 µg/mL. Besides, the “scavenging capacity for NO” value came to 40.92% in series [3] (0.5 mg/mL); 29.57% in series [3] (1 mg/mL); 55.12% in series [3] (3 mg/mL); 56.55% in series [3] (5 mg/mL); 59.10% in series [3] (starting value (lowest concentration)). Also, the “IC50, Nitric oxide” value in series [3] (tested 0.1 to 5 mg/mL) is 2710 ± 65.98 µg/mL (≈ 15.4 mM). In addition, in series [4], the “IC50, Total antioxidant Capacity” value is listed as 3005.29 ± 427.80 µg/mL (≈ 17.1 mM). Further, in series [5], the IC50 was less than 100 µg/mL.
